According to patent US8901111B2, “Aryl-substituted heterocyclic urea modulators of fatty acid amide hydrolase” (Janssen Pharmaceutica NV, priority 2009, dated 2014):
Where a name gives a salt, the structure may show the parent alone.

Legend:
rat FAAH = target: T1, rat FAAH (Rattus norvegicus, UniProt P97612); experiment: Assay Method 2: FAAH assay, 3H-anandamide hydrolysis in homogenate of cells transfected with rat FAAH; format: biochemical; conditions: cell homogenate, 3H-AEA 80 nM, 1 h at rt, average of results
T1 construct: expressed in transfected cells; crude homogenate
T1 sequence (P97612 1-579): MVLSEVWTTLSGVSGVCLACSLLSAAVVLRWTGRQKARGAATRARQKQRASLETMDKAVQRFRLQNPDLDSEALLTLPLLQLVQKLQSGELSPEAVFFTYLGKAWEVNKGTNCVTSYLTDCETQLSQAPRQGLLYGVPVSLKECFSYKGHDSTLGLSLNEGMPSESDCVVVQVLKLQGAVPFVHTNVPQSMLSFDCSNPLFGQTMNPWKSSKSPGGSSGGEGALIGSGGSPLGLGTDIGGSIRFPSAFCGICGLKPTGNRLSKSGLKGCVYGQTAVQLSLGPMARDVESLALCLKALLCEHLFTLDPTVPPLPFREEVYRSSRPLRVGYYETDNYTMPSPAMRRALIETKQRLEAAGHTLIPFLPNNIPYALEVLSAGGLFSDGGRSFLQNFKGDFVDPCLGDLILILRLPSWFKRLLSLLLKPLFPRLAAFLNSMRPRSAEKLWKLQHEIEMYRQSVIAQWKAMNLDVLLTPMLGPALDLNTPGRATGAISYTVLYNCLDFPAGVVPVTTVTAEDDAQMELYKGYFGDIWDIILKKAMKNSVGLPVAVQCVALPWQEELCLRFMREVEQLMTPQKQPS
Procedure: A. Transfection of Cells with Rat FAAH
(§1) A 10-cm tissue culture dish with a confluent monolayer of SK-N-MC cells was split 2 days (d) prior to transfection. Using sterile technique, the media was removed and the cells were detached from the dish by the addition of trypsin. One fifth of the cells were then placed onto a new 10-cm dish. Cells were grown in a 37° C. incubator with 5% CO2 in Minimal Essential Media Eagle with 10% Fetal Bovine Serum. After 2 d, cells were approximately 80% confluent. These cells were removed from the dish with trypsin and pelleted in a clinical centrifuge. The pellet was re-suspended in 400 μL complete media and transferred to an electroporation cuvette with a 0.4 cm gap between the electrodes. Supercoiled rat FAAH cDNA (1 μg) was added to the cells and mixed. The voltage for the electroporation was set at 0.25 kV, and the capacitance was set at 960 μF. After electroporation, the cells were diluted into complete media (10 mL) and plated onto four 10-cm dishes. Because of the variability in the efficiency of electroporation, four different concentrations of cells were plated. The ratios used were 1:20, 1:10, and 1:5, with the remainder of the cells being added to the fourth dish. The cells were allowed to recover for 24 h before adding the selection media (complete media with 600 μg/mL G418). After 10 d, dishes were analyzed for surviving colonies of cells. Dishes with well-isolated colonies were used. Cells from individual colonies were isolated and tested.
(§2) T84 frozen cell pellets or transfected SK-N-MC cells (contents of 1×15 cm culture dishes) were homogenized in 50 mL of FAAH assay buffer (125 mM Tris, 1 mM EDTA, 0.2% Glycerol, 0.02% Triton X-100, 0.4 mM Hepes, pH 9). The assay mixture consisted of 50 μL of the cell homogenate, 10 μL of the test compound, and 40 μL of anandamide [1-^3H-ethanolamine] (^3H-AEA, Perkin-Elmer, 10.3 Ci/mmol), which was added last, for a final tracer concentration of 80 nM. The reaction mixture was incubated at rt for 1 h. During the incubation, 96-well Multiscreen filter plates (catalog number MAFCNOB50; Millipore, Bedford, Mass., USA) were loaded with 25 μL of activated charcoal (Multiscreen column loader, catalog number MACL09625, Millipore) and washed once with 100 μL of MeOH. Also during the incubation, 96-well DYNEX MicroLite plates (catalog number NL510410) were loaded with 100 μL of MicroScint40 (catalog number 6013641, Packard Bioscience, Meriden, Conn., USA). After the 1 h incubation, 60 μL of the reaction mixture were transferred to the charcoal plates, which were then assembled on top of the DYNEX plates using Centrifuge Alignment Frames (catalog number MACF09604, Millipore). The unbound labeled ethanolamine was centrifuged through to the bottom plate (5 min at 2000 rpm), which was preloaded with the scintillant, as described above. The plates were sealed and left at rt for 1 h before counting on a Hewlett Packard TopCount.
(§3) Results for compounds tested in these assays are summarized in Table 1, as an average of results obtained. Compounds were tested in the free base or trifluoroacetic acid salt form. Compounds tested in the trifluoroacetic acid salt form are indicated as such by a “*” designation after the example number. Where activity is shown as greater than (>) a particular value, the value is the solubility limit of the compound in the assay medium or the highest concentration tested in the assay.

FAAH = target: T2, FAAH (Homo sapiens, UniProt O00519); experiment: Assay Method 1: FAAH assay, 3H-anandamide hydrolysis in homogenate of cells transfected with human FAAH; format: biochemical; set-up: expressed in transfected cells; crude homogenate (T84 cell pellets named as alternative); conditions: cell homogenate, 3H-AEA 80 nM, 1 h at rt, average of results
T2 sequence (O00519 1-579): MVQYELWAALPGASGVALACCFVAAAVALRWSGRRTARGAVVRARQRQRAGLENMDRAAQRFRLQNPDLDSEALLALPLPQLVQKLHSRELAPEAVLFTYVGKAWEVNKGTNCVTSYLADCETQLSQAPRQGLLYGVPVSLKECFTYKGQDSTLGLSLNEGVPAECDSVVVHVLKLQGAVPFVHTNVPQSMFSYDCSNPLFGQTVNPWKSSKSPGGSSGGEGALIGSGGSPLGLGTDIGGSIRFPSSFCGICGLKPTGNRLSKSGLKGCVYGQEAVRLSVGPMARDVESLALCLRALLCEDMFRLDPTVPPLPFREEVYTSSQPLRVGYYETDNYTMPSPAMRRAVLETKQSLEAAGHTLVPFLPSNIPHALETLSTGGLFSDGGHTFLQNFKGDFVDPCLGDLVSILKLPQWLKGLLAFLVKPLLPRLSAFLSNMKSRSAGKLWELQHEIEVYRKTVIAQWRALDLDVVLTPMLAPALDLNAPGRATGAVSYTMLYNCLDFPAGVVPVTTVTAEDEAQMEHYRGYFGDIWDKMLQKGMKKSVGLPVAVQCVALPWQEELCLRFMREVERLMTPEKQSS
Procedure: A. Transfection of Cells with Human FAAH
as §1, with “Supercoiled human” for “Supercoiled rat”, “[…]” for “960 μF.”
as §2, §3

Compound	IC50 (rat FAAH) [nM]	IC50 (FAAH) [nM]
O=C(Nc1cnccc1Cl)N1CCC(COc2ccc(Cl)c(Cl)c2)C1 (centres unmarked) [Example 49, N-(4-Chloropyridin-3-yl)-3-[(3,4-dichlorophenoxy)methyl]pyrrolidine-1-carboxamide]	33	9
O=C(Nc1cnccc1Cl)N1CCC(CCOc2ccc(Cl)c(Cl)c2)C1 (centres unmarked) [Example 58, 3-[2-(3,4-Dichloro-phenoxy)-ethyl]-pyrrolidine-1-carboxylic acid (4-chloro-pyridin-3-yl)-amide]	700	300
O=C(Nc1cccnc1)N1CC(COc2ccc3c(c2)OCO3)C1 [Example 7, 3-(Benzo[1,3]dioxol-5-yloxymethyl)-azetidine-1-carboxylic acid pyridin-3-ylamide]	> 10000	> 10000
O=C(Nc1cccnc1)N1CC(COc2cccc(OCc3ccccc3)c2)C1 [Example 23, 3-(3-Benzyloxy-phenoxymethyl)-azetidine-1-carboxylic acid pyridin-3-ylamide]	940	300
O=C(Nc1cnc2cccnn12)N1CC(CCOc2cccc(Oc3ccc(Cl)cc3)c2)C1 [Example 1, 3-{2-[3-(4-Chloro-phenoxy)-phenoxy]-ethyl}-azetidine-1-carboxylic acid imidazo[1,2-b]pyridazin-3-ylamide]	4	5
O=C(Nc1cccnc1)N1CC(COc2ccc3ncccc3c2)C1 [Example 15, 3-(Quinolin-6-yloxymethyl)-azetidine-1-carboxylic acid pyridin-3-ylamide, trifluoroacetate salt]	> 10000	> 10000
O=C(Nc1cccnc1)N1CC(COc2ccc(-c3ccccc3)cc2)C1 [Example 18, 3-(Biphenyl-4-yloxymethyl)-azetidine-1-carboxylic acid pyridin-3-ylamide]	> 10000	> 10000
O=C(Nc1cccnc1)N1CC(CCOc2ccc3ccccc3c2)C1 [Example 35, 3-[2-(Naphthalen-2-yloxy)-ethyl]-azetidine-1-carboxylic acid pyridin-3-ylamide, trifluoroacetate salt]	350	160
O=C(Nc1cccnc1)N1CC(CCOc2cccc(OC(F)(F)F)c2)C1 [Example 31, 3-[2-(3-Trifluoromethoxy-phenoxy)-ethyl]-azetidine-1-carboxylic acid pyridin-3-ylamide]	900	3000
O=C(Nc1cnccc1Cl)N1CC(CCOc2cccc(Oc3ccc(Cl)cc3)c2)C1 [Example 28, 3-{2-[3-(4-Chloro-phenoxy)-phenoxy]-ethyl}-azetidine-1-carboxylic acid (4-chloro-pyridin-3-yl)-amide]	1	1
O=C(Nc1cccnc1)N1CCC(COc2cccc(Oc3ccc(Cl)cc3)c2)C1 (centres unmarked) [Example 51, 3-{[3-(4-Chlorophenoxy)phenoxy]methyl}-N-pyridin-3-ylpyrrolidine-1-carboxamide]	62	200
O=C(Nc1cnccc1Cl)N1CC[C@H](COc2cccc(Oc3ccc(Cl)cc3)c2)C1 [Example 55, (3S)-3-[3-(4-Chloro-phenoxy)-phenoxymethyl]-pyrrolidine-1-carboxylic acid (4-chloro-pyridin-3-yl)-amide]	6	16
O=C(Nc1cnccc1Cl)N1CCC(Cc2cccc(Oc3ccc(F)cc3)c2)C1 (centres unmarked) [Example 75, 3-[3-(4-Fluoro-phenoxy)-benzyl]-pyrrolidine-1-carboxylic acid (4-chloro-pyridin-3-yl)-amide]	30	45
CCCCOc1cccc(OCC2CN(C(=O)Nc3cccnc3)C2)c1 [Example 12, 3-(3-Butoxy-phenoxymethyl)-azetidine-1-carboxylic acid pyridin-3-ylamide]	> 10000	300
CS(=O)(=O)c1ccc(Oc2cccc(OCC3CCN(C(=O)Nc4cccnc4)C3)c2)cc1 (centres unmarked) [Example 52, 3-({3-[4-(Methylsulfonyl)phenoxy]phenoxy}methyl)-N-pyridin-3-ylpyrrolidine-1-carboxamide]	1000	100
O=C(Nc1cnccc1Cl)N1CC(CCOCc2ccc(Cl)c(Cl)c2)C1 [Example 67, 3-[2-(3,4-Dichloro-benzyloxy)-ethyl]-azetidine-1-carboxylic acid (4-chloro-pyridin-3-yl)-amide]	84	39
O=C(Nc1cccnc1)N1CC(CCOCc2ccc(Cl)c(Cl)c2)C1 [Example 68, 3-[2-(3,4-Dichloro-benzyloxy)-ethyl]-azetidine-1-carboxylic acid pyridin-3-ylamide, trifluoroacetate salt]	1230	849
O=C(Nc1cccnc1)N1CC(COc2ccccc2)C1 [Example 2, 3-Phenoxymethyl-azetidine-1-carboxylic acid pyridin-3-ylamide, trifluoroacetate salt]	> 10000	> 10000
O=C(Nc1cccnc1)N1CC(COc2ccc3cccc(Cl)c3n2)C1 [Example 22, 3-(8-Chloro-quinolin-2-yloxymethyl)-azetidine-1-carboxylic acid pyridin-3-ylamide]	500	1300
